{
  "source": "patent US9896659B2",
  "about": "“Methods, kits, and compositions for stem cell self-renewal” (STOWERS INSTITUTE FOR MEDICAL RESEARCH, priority 2011, dated 2018)",
  "key": {"LSK Flk2^− cells [1]": {"system": "LSK Flk2^− cells", "test": "14-day ex vivo expansion of bone marrow MNCs in ST media with or without GSK3β inhibitor, FACS", "format": "cell-based, mouse", "details": "14-day culture of MNCs; average; FIG. 26B (250 nM CHIR99021)", "description": "For the experiments set forth in this Example, a particular HSC expansion media was used. This HSC expansion media consists of the following ingredients: (1) StemSpan Media (Stem Cell Technologies; Cat. No. 09600) (StemSpan Media consists of Iscove's-modified Dulbecco's medium (IMDM) supplemented with 1% bovine serum albumin, 10 μg/ml recombinant human insulin, 200 μg/ml iron-saturated transferrin, 0.1 mM 2-mercaptoethanol and 2 mM glutamine.); (2)10 μg/ml Heparin (Sigma; Cat. No. H-3149); (3) 0.5× Penicillin/Streptomycin (Sigma; Cat. No. P4333); (4) 10 ng/ml recombinant mouse (rm) or recombinant human (rh) Stem Cell Factor (SCF) (Biovision; Cat. No. 4328-10 or 4327-10, respectively); (5) 20 ng/ml rm or rh Thrombopoietin (Tpo) (Cell Sciences, Inc; Cat. No. CRT401B or CRT400B, respectively). CHIR99021 (250 nM) (Stemgent, Inc; Cat. No. 04-0004) may be added to this HSC expansion media as indicated.\nBone marrow cells were harvested from C57Bl/6 (CD45.2) mice and made into a single cell suspension by gently drawing through a 22 g needle several times. Mobilized peripheral blood or bone marrow from human patients was harvested at the University of Kansas Medical Center (Kansas City, Mo. USA). […] Mononuclear cells were isolated from mouse bone marrow using Histopaque 1077 (Sigma; Cat. No. 10771) and human blood or bone marrow using Ficoll-Paque PLUS (Stem Cell Technologies; Cat. No. 07917) according to the manufacturers' instructions. Cells were washed and resuspended in HSC expansion media. Cells were counted and a fraction of mononuclear cells (MNCs) were stained for lineage markers using CD3, CD4, CD8, B220, IgM, Mac-1, Gr1, and Ter119 antibodies along with Kit, Sca-1, and Flk2 for mouse HSC analysis or CD34 and CD38 for human HSC analysis. 1×10^6 cells/0.1 ml were stained at 4° C. for 30 minutes using 0.05 μg of antibody for each lineage marker and 0.2 μg for remaining antibodies. […] Frequency of putative HSCs (lineage negative, Sca-1^+, Kit^+, Flk-1^− for mouse or CD34^+, CD38^− cells for human) was determined by analyzing >3×10^6 cells per sample independently in triplicate. […]"}, "[2]": {"system": "lethally irradiated (10 Gy) CD45.1^+ recipient mice", "test": "Transplantation of cultured sorted LSK Flk2^− cells into lethally irradiated recipients, donor engraftment", "format": "in vivo, mouse", "details": "28-day cultures, 1000 re-sorted LSK Flk2^− cells + 2×10^5 competitor cells; peripheral blood 4 weeks post-transplant", "excerpt": "Cells were harvested from the wells prior to transplantation by pipetting up and down several times before transferring to a fresh tube. Residual was then collected by adding more media and repeating. Cells were washed in DMEM (Invitrogen, Cat. No. 31053) without phenol red and added to the appropriate number of whole bone marrow rescue cells from a congenic donor (for 200,000 rescue cells+1,000 re-sorted LSK Flk2^− cells (FIGS. 3F-H) or the non-adherent product of 10 days culture of 100 LSK Flk2^− cultured cells (FIGS. 3I-K) per mouse as indicated). […]\nRepopulation was measured at 4 weeks post-transplant by collection of peripheral blood, red blood cell lysis, and staining of CD45.1 (recipient) compared to CD45.2 (donor) engraftment using antibodies purchased from eBiosciences (FITC conjugated CD45.2 (Cat. No. 11-0454-85) and PE-Cy5 conjugated CD45.1 (Cat. No. 15-0453-82)). […] Multi-lineage reconstitution was determined by CD3, B220 (for lymphoid) and Gr1, Mac-1 (for myeloid), as described above.\nCells cultured for 28 days in (1) media, (2) media+BpV(pic), (3) media+CHIR99021 and (4) media+CHIR99021 (1 μM)+BpV(pic) (200 nM) were re-sorted for LSK Flk2^− cells. […] At 4 weeks post-transplant, peripheral blood was analyzed for donor (FIG. 3G) and multi-lineage (FIG. 3H) engraftment. […]"}, "[3]": {"system": "lethally irradiated CD45.1 recipient mice", "test": "Competitive repopulation assay of 14-day cultures", "format": "in vivo, mouse", "details": "for Average repopulation: long-term engraftment (FIGS. 5 and 13)", "experimental": "For the experimental results shown in FIG. 13A, sorted LSK Flk2^− cells and unsorted MNCs containing a known quantity of LSK Flk2^− cells (CD45.2^+) were cultured for 14 days in ST media with and without CHIR99021. The cultured product of 100 sorted or 5 unsorted LSK Flk2^− cells per mouse were transplanted into lethally irradiated recipients (CD45.1^+). 5 freshly isolated, unsorted LSK Flk2^− cells per mouse were transplanted into a separate group. 1×10^5 freshly isolated CD45.1^+ competitor/radioprotective cells were also added per mouse. Peripheral blood analysis of recipients at 16 weeks post-transplant depicts % chimerism.\n(§1) Bone marrow mononuclear cells (MNCs) were fractionated and the concentration of lineage marker negative, Sca-1^+, c-Kit^+, Flk2^− (LSKF^−) cells was determined. MNCs containing a known quantity of LSKF^− cells were cultured for 14 days in media containing SCF and Tpo (ST), ST media with 250 nM CHIR99021 or ST media with 2 mM lithium chloride (LiCl) as indicated. After 14 days, the cellular product of these cultures was transplanted into lethally-irradiated recipients (10 Gray units) at a dosage corresponding to an original input into culture of MNCs containing 5 LSKF^− cells per mouse for each group. 1×10^5 competitor bone marrow cells congenic with the hosts (CD45.1^+) were included per mouse. At 4 weeks post-transplant, peripheral blood was collected from each transplant recipient, and donor vs. host derived hematopoietic cells were determined by FACS analysis.\nas §1, with “At 16” for “At 4”\nCells were incubated at 37° C. with 5% CO2 and 5% O2 (balance N2) for 14 days. […]"}, "[4]": {"system": "lethally irradiated recipients", "test": "Limiting-dilution competitive repopulating unit (CRU) assay", "format": "in vivo, mouse", "details": "CHIR99021 versus ST media (2/0.4)", "experimental": "FIGS. 27A-C show ex vivo expansion of normal, long-term repopulating HSC. MNCs containing a known quantity of LSK Flk2^− cells were cultured for 14 days with and without CHIR99021. The cultured progeny of MNCs containing a pre-culture dosage of 0.1, 0.3 or 1.0 LSK Flk2^− cells were transplanted into lethally irradiated recipients along with 1×10^5 rescue/competitor cells (n=10 for each of 6 groups). Peripheral blood was analyzed at 16 weeks post-transplant and competitive repopulating unit (CRU) frequency was determined using L-Calc software (Stem Cell Technologies, Inc.) based on Poisson statistics (Zhang, C. C. & Lodish, H. F. Murine hematopoietic stem cells change their surface phenotype during ex vivo expansion. Blood, Vol. 105, pages 4314-4320 (2005); Miller, C. L. & Eaves, C. J. Expansion in vitro of adult murine hematopoietic stem cells with transplantable lympho-myeloid reconstituting ability. Proceedings of the National Academy of Sciences of the United States of America, Vol. 94, pages 13648-13653 (1997)). […] Peripheral blood was analyzed for percent donor repopulation at 16 weeks post-1°, 2°, and 3° transplant (upper panels) and percent mature donor-derived B, T and myeloid cells (lower panels). […]"}, "LSK Flk2^− cells [5]": {"system": "LSK Flk2^− cells", "test": "10-day culture of bone marrow MNCs with PI3K inhibitor, CHIR99021 or without insulin, expansion of LSK Flk2^− cells", "format": "cell-based, mouse", "details": "10 days culture; 250 nM CHIR99021; NVP-BEZ235 at indicated concentrations"}},
  "note": "Entries after “also recorded” stand apart in the source; their conditions may differ.",
  "data": [
    {"smiles": "Cc1c[nH]c(-c2cnc(NCCNc3ccc(C#N)cn3)nc2-c2ccc(Cl)cc2Cl)n1", "note": "[CHIR99021]", "values": [
      {"measurement": "Increase in total number of LSK Flk2^− cells", "setting": "LSK Flk2^− cells [1]", "result": 93, "unit": "fold"},
      {"measurement": "Mice showing >1% engraftment", "setting": "[2]", "result": "4/8"},
      {"measurement": "Repopulation capacity of ex vivo expanded HSCs", "setting": "[3]; 4 weeks post-transplant, 250 nM CHIR99021 or 2 mM LiCl in ST media, 14 days", "result": "enhance repopulation capacity of ex vivo expanded hematopoietic stem cells"},
      {"measurement": "Long-term repopulation / engraftment of ex vivo expanded HSCs", "setting": "[3]; 16 weeks post-transplant, 250 nM CHIR99021 or 2 mM LiCl in ST media, 14 days", "result": "enhance long-term repopulation capacity of ex vivo expanded hematopoietic stem cells; also recorded: enhances long-term engraftment of ex vivo expanded HSCs"},
      {"measurement": "Average repopulation", "setting": "[3]; 100 sorted putative HSCs cultured 14 days", "result": 12.3, "unit": "%"},
      {"measurement": "Average repopulation", "setting": "[3]; unsorted MNC cultures, 14 days", "result": 64.8, "unit": "%"},
      {"measurement": "Increase of CRU frequency", "setting": "[4]", "result": 5, "unit": "fold"},
      {"measurement": "Expansion of LSK Flk2^− cells", "setting": "LSK Flk2^− cells [5]", "result": "increased the expansion"}
    ]}
  ]
}
